Laboratory results reported in PMC11790956, “A microscale thermophoresis-based enzymatic RNA methyltransferase assay enables the discovery of DNMT2 inhibitors” (Communications Chemistry, 2025).

Experiments:
metH aptamer = test system: metH aptamer; parameters: method as in PMID 20864509; settings: cited from earlier work
AptaFluor SAH aptamer = assay: Commercial AptaFluor SAH assay kit (HTRF) ligand titration; type: binding; settings: read-out: affinity KD
Protocol: To assess the suitability for sensing SAH in a steady-state enzymatic assay, we examined statistical Z-values at 50 nM SAH (which correspond to 5% SAM-to-SAH substrate conversion from 1 µM SAM substrate in a common RNA MTase reaction). By this, we determined an MST-based Z-value of 0.84 (FRET assay: Z = 0.57) highlighting the suitability of this framework for high-throughput screening (HTS) assay setups (Fig. 1E). For these reasons, we prefer the usage of the MST-based assay which the following chapter will focus on, but it is noteworthy that plate reader-based FRET assays were also found equally functional. Furthermore, we performed comparative assays with the commercial AptaFluor assay kit, which gave similar results to our assay in all respects (SI Fig. 2): Z-factor at 50 nM SAH = 0.84; SAH resp.
Radiometric DNMT2 assays were carried out as described previously. HTRF MTase assays with the commercial AptaFluor SAH assay kit (BellBrook Labs) were performed as described in the manufacturer’s manual in 96-well format.
SI Figure 1 . Displacement of FTAD by literature-known inhibitors in a microscale thermophoresis displacement a s s a y. Data is given as mean ± SD of triplicates. (A) MST traces of SHO108. […]
SI Figure 2. […] (B) D o se -response curves of the AptaFluor assay in the presence of the SAH or SAM ligand by plate reader-ba s e d HT R F ass ays (λex=33 2 nm; λem=620/665 nm). […]

[1] = molecular target: aptaSAH1&2 SAH split aptamer; assay: Split aptamer (aptaSAH1&2) plate reader-based FRET ligand titration; type: binding, D. aromatica; settings: for Kd: FRET, aptaSAH1&2 each 50 nM, λex = 485 nm, λem = 600 nm, read-out: apparent KD
From the text: In our study, we followed the aim of developing a fluorescent split aptamer SAH biosensor (Fig. 1A) from the natural non-split metH RNA aptamer. The concept of fluorescent split aptamers relies on a series of two or more independent fluorescently labeled aptamer oligonucleotides, able to assemble only in the presence of a specific target ligand. In a FRET-based approach, two fragments carry a FRET-pair of communicating fluorescent dyes, such that, upon excitation of the donor dye, the acceptor dye will only emit fluorescence if the dyes are in spatial proximity in the ligand-bound complex, thus indicating the presence of the analyte, i.e., SAH[23]. […] Accordingly, we evaluated two split aptamer fragments labeled with fluorescein (FAM) and tetramethylrhodamin (TAMRA) as a FRET-capable dye pair: aptaSAH1 and aptaSAH2 (Fig. 1B).
(§1) To establish our experimental setup, we mixed both aptamer fragment oligonucleotides at equimolar concentrations (final: 50 nM) and titrated series of SAH resp. SAM dilutions to this prototypical SAH biosensor. […] Furthermore, MST assays require only 10 µL of sample volume per capillary compared to 30 µL per well in a 96-well plate supporting high-throughput applications in material consumption.
MTase reaction mixtures were prepared analogously to the MST-based detection approach but on a 30 µL scale (minimum volume for 96-well half-area plates). Reactions were quenched at a given time by 0.3% SDS and supplemented with 3 µL of the 10× aptamer-containing detection master mix. Reaction mixtures were transferred in technical triplicates to black Greiner 96-well half-area plate and incubated for 1 h at room temperature. Afterward, plates were measured using a Tecan Spark 10 M plate reader equipped with a monochromator setup (λex = 485 nm; λem = 600 nm). Statistical analysis and plotting were performed in GraphPad Prism 7.01.

[2] = molecular target: aptaSAH1&2 SAH split aptamer; assay: Split aptamer (aptaSAH1&2) MST ligand titration; type: binding, D. aromatica; settings: MST, aptaSAH1&2 each 50 nM
Protocol: as §1
To evaluate the effect of inhibitors on DNMT2 activity, we used two known inhibitors, SHO108 and SH112. These SAH derivatives were selected based on their documented efficacy for DNMT2[8],[26].
For MTase assay detection by MST, enzyme reaction mixtures with a total volume of 10 µL per single treatment condition were prepared and incubated for the desired reaction times. Inhibitors were added from corresponding DMSO stocks to a final DMSO concentration of max. 5%. Afterward, reactions were quenched at a given reaction time by the addition of 1 µL sodium dodecyl sulfate (SDS, solution, 3% in water) per 10 µL reaction mixture and mixed well by pipetting. Subsequently, 1 µL of a 10× aptamer-containing detection master mix (200 mM Tris, pH 8.5, 200 mM MgCl2, 3 M NaCl, 10 mM urea, 0.2% Brij, 500 nM aptaSAH1, 500 nM aptaSAH2) was added to the quenched MTase reaction and incubated for 1 h at room temperature. Reaction mixtures were loaded directly to MST capillaries without further purification or sample processing.
MST experiments were carried out in at least technical triplicates using a Monolith NT.115 instrument (NanoTemper Technologies) using Monolith standard capillaries and the blue excitation laser setup. The instrument was calibrated according to the manufacturer’s instructions. General settings were applied for all MST experiments as follows: manual temperature control: 25 °C, fluorescence measurement before MST: 4 s, MST (IR laser) on: 20 s, fluorescence after MST: 2 s, delay: 25 s. The laser power was adjusted to optimize the signal-to-noise ratio and the fluorescence signal. LED and MST power settings were chosen individually for each sample by adjusting the LED power to yield fluorescence signals of at least 300 units (blue laser) or 3000 units (red laser) and the MST power to achieve an appropriate thermophoretic response (standard setting: medium MST power). MST measurements were analyzed using the NT analysis software (version 1.5.41) and exported for statistical analysis and plotting in GraphPad Prism 7.01.

METTL3/14 = molecular target: T1, METTL3/14 (Homo sapiens, UniProt Q86U44); assay: METTL3/14 enzymatic split aptamer MST assay; type: biochemical; settings: 10 nM MTase, 120 nM RNA substrate, variable SAM; read-out: Michaelis-Menten constant KM
T1 construct: purchased BPS Bioscience BPS-100105
T1 sequence (Q86U44 2-580 limits assumed): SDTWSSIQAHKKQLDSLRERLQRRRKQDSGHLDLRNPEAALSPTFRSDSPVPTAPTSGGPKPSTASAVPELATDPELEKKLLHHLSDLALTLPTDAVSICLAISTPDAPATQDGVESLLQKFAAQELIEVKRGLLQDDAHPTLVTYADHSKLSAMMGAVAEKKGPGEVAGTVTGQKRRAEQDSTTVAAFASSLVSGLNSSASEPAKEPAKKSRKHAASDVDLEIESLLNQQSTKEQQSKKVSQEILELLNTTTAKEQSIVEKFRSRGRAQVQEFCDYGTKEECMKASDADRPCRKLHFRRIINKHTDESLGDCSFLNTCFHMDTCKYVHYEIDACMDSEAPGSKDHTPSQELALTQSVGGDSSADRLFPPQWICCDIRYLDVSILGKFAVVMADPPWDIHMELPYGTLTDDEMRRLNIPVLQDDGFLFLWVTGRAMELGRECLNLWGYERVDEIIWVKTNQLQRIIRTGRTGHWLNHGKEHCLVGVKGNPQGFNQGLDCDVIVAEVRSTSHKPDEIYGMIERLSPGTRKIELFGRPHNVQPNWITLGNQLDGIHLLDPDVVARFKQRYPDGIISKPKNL
T1 sequence (Q9HCE5 2-456 partner limits assumed): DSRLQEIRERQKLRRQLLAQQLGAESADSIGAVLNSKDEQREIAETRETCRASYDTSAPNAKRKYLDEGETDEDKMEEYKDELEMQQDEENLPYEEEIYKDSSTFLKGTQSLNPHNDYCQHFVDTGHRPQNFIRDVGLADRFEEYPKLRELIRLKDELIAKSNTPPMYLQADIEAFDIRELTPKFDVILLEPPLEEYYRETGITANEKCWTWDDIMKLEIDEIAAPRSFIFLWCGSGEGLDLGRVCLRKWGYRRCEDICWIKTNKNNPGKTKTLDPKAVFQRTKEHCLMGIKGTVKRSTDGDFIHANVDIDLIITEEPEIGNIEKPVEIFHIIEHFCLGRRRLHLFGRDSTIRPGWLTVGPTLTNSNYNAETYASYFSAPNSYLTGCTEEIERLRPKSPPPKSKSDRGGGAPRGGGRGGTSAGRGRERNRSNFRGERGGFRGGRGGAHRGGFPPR
Protocol: Specifically, we studied the m^6A MTase METTL3/14 and the m^7G MTase S. aureus TrmD.
For MTase assay detection by MST, enzyme reaction mixtures with a total volume of 10 µL per single treatment condition were prepared and incubated for the desired reaction times. Inhibitors were added from corresponding DMSO stocks to a final DMSO concentration of max. […] Afterward, reactions were quenched at a given reaction time by the addition of 1 µL sodium dodecyl sulfate (SDS, solution, 3% in water) per 10 µL reaction mixture and mixed well by pipetting. […]
MST experiments were carried out in at least technical triplicates using a Monolith NT.115 instrument (NanoTemper Technologies) using Monolith standard capillaries and the blue excitation laser setup. […] General settings were applied for all MST experiments as follows: manual temperature control: 25 °C, fluorescence measurement before MST: 4 s, MST (IR laser) on: 20 s, fluorescence after MST: 2 s, delay: 25 s. The laser power was adjusted to optimize the signal-to-noise ratio and the fluorescence signal. LED and MST power settings were chosen individually for each sample by adjusting the LED power to yield fluorescence signals of at least 300 units (blue laser) or 3000 units (red laser) and the MST power to achieve an appropriate thermophoretic response (standard setting: medium MST power). […]

S. aureus TrmD = molecular target: T2, S. aureus TrmD (Staphylococcus aureus, UniProt Q2FZ43); assay: S. aureus TrmD enzymatic split aptamer MST assay; type: biochemical
T2 construct: made in house
T2 sequence (Q2FZ43 1-245): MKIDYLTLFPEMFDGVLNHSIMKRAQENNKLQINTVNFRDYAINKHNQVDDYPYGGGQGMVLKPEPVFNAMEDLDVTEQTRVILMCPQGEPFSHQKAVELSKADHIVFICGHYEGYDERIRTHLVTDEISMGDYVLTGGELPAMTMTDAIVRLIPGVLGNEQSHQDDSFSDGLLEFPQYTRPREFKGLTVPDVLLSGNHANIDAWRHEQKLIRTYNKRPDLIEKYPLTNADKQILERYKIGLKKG
Protocol: DNMT2 & S. aureus TrmD: 100 mM Tris-HCl, pH 8, 100 mM NH4OAc, 0.1 mM EDTA, 10 mM MgCl2, 10 mM DTT. For TrmD: 50 nM TrmD, 2 µM SAM, 1 µM tRNA^Leu.
For MTase assay detection by MST, enzyme reaction mixtures with a total volume of 10 µL per single treatment condition were prepared and incubated for the desired reaction times. Inhibitors were added from corresponding DMSO stocks to a final DMSO concentration of max. 5%. Afterward, reactions were quenched at a given reaction time by the addition of 1 µL sodium dodecyl sulfate (SDS, solution, 3% in water) per 10 µL reaction mixture and mixed well by pipetting. Subsequently, 1 µL of a 10× aptamer-containing detection master mix (200 mM Tris, pH 8.5, 200 mM MgCl2, 3 M NaCl, 10 mM urea, 0.2% Brij, 500 nM aptaSAH1, 500 nM aptaSAH2) was added to the quenched MTase reaction and incubated for 1 h at room temperature. […]
MST experiments were carried out in at least technical triplicates using a Monolith NT.115 instrument (NanoTemper Technologies) using Monolith standard capillaries and the blue excitation laser setup. […] General settings were applied for all MST experiments as follows: manual temperature control: 25 °C, fluorescence measurement before MST: 4 s, MST (IR laser) on: 20 s, fluorescence after MST: 2 s, delay: 25 s. The laser power was adjusted to optimize the signal-to-noise ratio and the fluorescence signal. […]

TrmD = settings: read-out: reported IC50; cited from earlier work

Row | Compound | selectivity over other nucleosides (including SAM) (metH aptamer) | Kd (metH aptamer; isothermal titration calorimetry, read-out: apparent dissociation constant KD) [nM] | Kd (AptaFluor SAH aptamer) [nM] | Kd [1] [nM] | SAH over SAM selectivity ([1]; from FRET apparent KD values) [fold] | Kd [2] [nM] | Km (METTL3/14) [nM] | IC50 (S. aureus TrmD) [µM] | IC50 (TrmD) [µM]
1 | Nc1ncnc2c1ncn2[C@@H]1O[C@H](CSCC[C@H](N)C(=O)O)[C@@H](O)[C@H]1O [SAH, S-adenosylhomocysteine] | at least 100 fold | ~20 | 26 | 18 | 300 | 24 |  |  | 
2 | C[S+](CC[C@H](N)C(=O)[O-])C[C@H]1O[C@@H](n2cnc3c(N)ncnc32)[C@H](O)[C@@H]1O (stereo partly drawn) [SAM, S-adenosylmethionine] |  |  | 5700 | 5300 |  | 2500 | 106 |  | 
3 | O=c1nc[nH]c2scc(-c3ccccc3)c12 [phenylthieno-pyrimidinone, 5-phenylthieno[2,3-d]pyrimidin-4(1H)-one] |  |  |  |  |  |  |  | 8.45 | 11
